Test results taken from US20220226337A1 (Gilead Sciences, Inc., priority 2018, published 2022).

Biological target: T1, α4β7 integrin interaction with MadCAM-1 (RPMI8866 cells) (Homo sapiens, UniProt P13612+P26010)
T1 construct: α4β7 integrin expressing cells; endogenous in cells; host or cells: RPMI8866 cells
T1 sequence (P13612 34-1032): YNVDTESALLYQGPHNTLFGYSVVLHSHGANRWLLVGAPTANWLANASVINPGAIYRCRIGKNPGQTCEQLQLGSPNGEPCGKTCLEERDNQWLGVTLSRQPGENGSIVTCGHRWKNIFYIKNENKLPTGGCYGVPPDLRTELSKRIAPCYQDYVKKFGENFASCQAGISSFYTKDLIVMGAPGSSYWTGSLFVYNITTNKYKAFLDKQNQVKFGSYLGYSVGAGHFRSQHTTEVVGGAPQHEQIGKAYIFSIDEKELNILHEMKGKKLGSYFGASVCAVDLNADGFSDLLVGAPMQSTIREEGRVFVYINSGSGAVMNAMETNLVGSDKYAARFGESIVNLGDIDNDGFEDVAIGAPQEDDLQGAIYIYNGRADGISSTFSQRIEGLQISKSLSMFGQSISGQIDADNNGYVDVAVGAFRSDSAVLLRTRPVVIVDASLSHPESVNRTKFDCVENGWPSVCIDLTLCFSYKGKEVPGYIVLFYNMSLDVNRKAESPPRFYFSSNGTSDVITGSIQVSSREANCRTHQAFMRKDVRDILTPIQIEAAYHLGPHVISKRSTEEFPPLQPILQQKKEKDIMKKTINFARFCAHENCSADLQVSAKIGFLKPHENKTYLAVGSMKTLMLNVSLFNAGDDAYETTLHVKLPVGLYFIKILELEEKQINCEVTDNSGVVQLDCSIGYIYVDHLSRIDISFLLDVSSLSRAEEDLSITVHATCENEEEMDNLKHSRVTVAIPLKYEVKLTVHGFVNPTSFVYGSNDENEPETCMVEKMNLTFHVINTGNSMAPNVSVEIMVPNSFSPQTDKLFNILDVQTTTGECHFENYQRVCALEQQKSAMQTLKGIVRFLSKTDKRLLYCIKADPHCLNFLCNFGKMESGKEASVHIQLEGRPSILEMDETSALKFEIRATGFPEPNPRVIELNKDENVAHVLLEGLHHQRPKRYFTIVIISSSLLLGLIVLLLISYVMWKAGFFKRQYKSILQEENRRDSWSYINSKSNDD
T1 sequence (P26010 20-798): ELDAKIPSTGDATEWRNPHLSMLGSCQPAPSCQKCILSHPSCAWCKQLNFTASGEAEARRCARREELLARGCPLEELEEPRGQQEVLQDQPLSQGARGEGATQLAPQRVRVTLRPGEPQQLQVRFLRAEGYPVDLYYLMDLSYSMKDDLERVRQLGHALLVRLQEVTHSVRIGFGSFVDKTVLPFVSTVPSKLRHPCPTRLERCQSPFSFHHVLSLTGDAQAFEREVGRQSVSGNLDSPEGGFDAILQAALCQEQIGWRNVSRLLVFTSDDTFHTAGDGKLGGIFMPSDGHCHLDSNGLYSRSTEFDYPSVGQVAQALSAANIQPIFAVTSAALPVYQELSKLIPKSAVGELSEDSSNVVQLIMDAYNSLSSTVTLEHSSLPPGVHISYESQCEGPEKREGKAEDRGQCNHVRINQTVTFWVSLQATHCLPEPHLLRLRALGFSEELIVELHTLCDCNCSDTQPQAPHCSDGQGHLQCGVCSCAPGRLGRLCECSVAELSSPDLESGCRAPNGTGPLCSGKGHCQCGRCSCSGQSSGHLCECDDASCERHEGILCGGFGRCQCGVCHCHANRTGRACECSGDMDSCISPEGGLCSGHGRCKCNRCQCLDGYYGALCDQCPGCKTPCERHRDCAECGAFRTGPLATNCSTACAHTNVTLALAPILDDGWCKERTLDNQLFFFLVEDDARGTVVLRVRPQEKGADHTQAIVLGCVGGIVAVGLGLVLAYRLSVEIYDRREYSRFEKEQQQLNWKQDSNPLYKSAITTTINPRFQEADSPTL
Assay: α4β7 Integrin Cell Capture Assay
Format: cell-based
Conditions: capture of α4β7 integrin expressing RPMI8866 cells on recombinant MadCAM-1 extracellular domain-coated plate; 0.5 mM MnCl2
In short: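 RPMI8866 cells (0.5×10^6 cells/mL in DMEM + 0.5% FBS + 0.5 mM MnCl2) preincubated with compound 1 h at 37 °C, then allowed to adhere 30 min at 37 °C to plates coated with MAdCAM-1 extracellular domain (1.0 μg/mL). Bound cells fixed with 2% glutaraldehyde, Hoechst-stained, imaged and counted; EC50 from cell count versus concentration.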

Work on `O=C(N[C@@H](Cc1ccc(-c2ncc3ccccc3c2Br)c2c1CCCO2)C(=O)O)c1c(Cl)cccc1Cl` [Example 63, (S)-3-(8-(4-bromoisoquinolin-3-yl)chroman-5-yl)-2-(2,6-dichlorobenzamido) propanoic acid] yielded an EC50 of 7.99 nM.

`O=C(N[C@@H](Cc1ccc(-c2cc(F)c(F)cc2OC2CC2)c2c1CCCO2)C(=O)O)c1c(Cl)cccc1Cl` [Example 64, (S)-3-(8-(2-cyclopropoxy-4,5-difluorophenyl)chroman-5-yl)-2-(2,6-dichlorobenzamido)propanoic acid] gave an EC50 of 110 nM.

In the case of `O=C(N[C@@H](Cc1ccc(-c2ncc3ccccc3c2Br)c2c1CCCO2)C(=O)O)c1c(F)cccc1F` [Example 65, (S)-3-(8-(4-bromoisoquinolin-3-yl)chroman-5-yl)-2-(2,6-difluorobenzamido)propanoic acid], the EC50 is reported as 19.6 nM.

`O=C(N[C@@H](Cc1ccc(-c2cccc3c2OCCC3)c2c1CCCO2)C(=O)O)c1c(F)cccc1F` [Example 66, (S)-3-([8,8′-bichroman]-5-yl)-2-(2,6-difluorobenzamido)propanoic acid] gave an EC50 of 120 nM.

Molecule `O=C(N[C@@H](Cc1ccc(-c2cccc3c2OCCC3)c2c1CCCO2)C(=O)O)c1c(Cl)cccc1Cl` [Example 67, (S)-3-([8,8′-bichroman]-5-yl)-2-(2,6-dichlorobenzamido)propanoic acid] has an EC50 of 40.9 nM.

`O=C(N[C@@H](Cc1ccc(-c2cc(F)c(F)cc2OC2CC2)c2c1CCCO2)C(=O)O)c1c(F)cccc1F` [Example 68, (S)-3-(8-(2-cyclopropoxy-4,5-difluorophenyl)chroman-5-yl)-2-(2,6-difluorobenzamido)propanoic acid] was tested, and the EC50 was 56.5 nM.

With `Cn1nc(-c2ccc(C[C@H](NC(=O)c3c(Cl)cccc3Cl)C(=O)O)c3c2OCCC3)c2ccccc21` [Example 69, (S)-2-(2,6-dichlorobenzamido)-3-(8-(1-methyl-1H-indazol-3-yl)chroman-5-yl)propanoic acid] the EC50 was 158 nM.

For `COc1cc(F)c(F)cc1-c1ccc(C[C@H](NC(=O)c2c(Cl)cccc2Cl)C(=O)O)c2c1OCCC2` [Example 70, (S)-2-(2,6-dichlorobenzamido)-3-(8-(4,5-difluoro-2-methoxyphenyl)chroman-5-yl)propanoic acid], the EC50 was 30.5 nM.

Molecule `CCOCc1cc(OC)c(-c2ccc(C[C@H](NC(=O)c3c(F)cccc3F)C(=O)O)c3c2OCCC3)c(OC)c1` [Example 71, (S)-2-(2,6-difluorobenzamido)-3-(8-(4-(ethoxymethyl)-2,6-dimethoxyphenyl)chroman-5-yl)propanoic acid] has an EC50 of 9.18 nM.

With `N#Cc1ccc(-c2ccc(C[C@H](NC(=O)c3c(F)cccc3F)C(=O)O)c3c2OCCC3)c(Cl)c1` [Example 72, (S)-3-(8-(2-chloro-4-cyanophenyl)chroman-5-yl)-2-(2,6-difluorobenzamido)propanoic acid] the EC50 was 53.3 nM.

Molecule `Cn1cc(-c2ccc(C[C@H](NC(=O)c3c(F)cccc3F)C(=O)O)c3c2OCCC3)c(=O)n(C)c1=O` [Example 73, (S)-2-(2,6-difluorobenzamido)-3-(8-(1,3-dimethyl-2,4-dioxo-1,2,3,4-tetrahydropyrimidin-5-yl)chroman-5-yl)propanoic acid] has an EC50 of 17.3 nM.

In the case of `O=C(N[C@@H](Cc1ccc(-c2c(Cl)cc(F)cc2Cl)c2c1CCCO2)C(=O)O)c1c(F)cccc1F` [Example 74, (S)-3-(8-(2,6-dichloro-4-fluorophenyl)chroman-5-yl)-2-(2,6-difluorobenzamido)propanoic acid], the EC50 is reported as 79.7 nM.

With `O=C(N[C@@H](Cc1ccc(-c2c(Cl)cc(F)cc2Cl)c2c1CCCO2)C(=O)O)c1c(Cl)cccc1Cl` [Example 75, (S)-3-(8-(2,6-dichloro-4-fluorophenyl)chroman-5-yl)-2-(2,6-dichlorobenzamido)propanoic acid] the EC50 was 67.7 nM.

With `O=C(N[C@@H](Cc1ccc(-c2c(Cl)cc(F)cc2Cl)c2c1C1CC1CO2)C(=O)O)c1c(F)cccc1F` (stereo partly drawn) [Example 77, (2S)-3-(4-(2,6-dichloro-4-fluorophenyl)-1,1a,2,7b-tetrahydrocyclopropa [c]chromen-7-yl)-2-(2,6-difluorobenzamido)propanoic acid] the EC50 was 70.3 nM.

`O=C(N[C@@H](Cc1ccc(-c2c(Cl)cc(F)cc2Cl)c2c1C1CC1CO2)C(=O)O)c1c(Cl)cccc1Cl` (stereo partly drawn) [Example 80, (2S)-3-(4-(2,6-dichloro-4-fluorophenyl)-1,1a,2,7b-tetrahydrocyclopropa[c]chromen-7-yl)-2-(2,6-dichlorobenzamido)propanoic acid] gave an EC50 of 67.7 nM.

With `O=C(N[C@@H](Cc1ccc(-c2c(Cl)cc(F)cc2Cl)c2c1CCCO2)C(=O)O)c1c(F)cc(N2CCOC[C@@H]2C(F)(F)F)cc1F` [Example 83, (S)-3-(8-(2,6-dichloro-4-fluorophenyl)chroman-5-yl)-2-(2,6-difluoro-4-((R)-3-(trifluoromethyl)morpholino)benzamido)propanoic acid] the EC50 was 35.5 nM.

Work on `O=C(N[C@@H](Cc1ccc(-c2c(Cl)cc(F)cc2Cl)c2c1CCCO2)C(=O)O)c1c(F)cc(N[C@H](c2ccccc2)C(F)(F)F)cc1F` [Example 84, (S)-3-(8-(2,6-dichloro-4-fluorophenyl)chroman-5-yl)-2-(2,6-difluoro-4-(((R)-2,2,2-trifluoro-1-phenylethyl)amino)benzamido)propanoic acid] yielded an EC50 of 64 nM.

With `Cn1cc(-c2ccc(C[C@H](NC(=O)c3c(F)cc(N[C@H](c4ccccc4)C(F)(F)F)cc3F)C(=O)O)c3c2OCCC3)c(=O)n(C)c1=O` [Example 85, (S)-2-(2,6-difluoro-4-(((R)-2,2,2-trifluoro-1-phenylethyl)amino)benzamido)-3-(8-(1,3-dimethyl-2,4-dioxo-1,2,3,4-tetrahydropyrimidin-5-yl)chroman-5-yl) propanoic acid] the EC50 was 0.53 nM.

With `O=C(N[C@@H](Cc1ccc(-c2ncccc2C(F)(F)F)c2c1CCCO2)C(=O)O)c1c(F)cc(N[C@H](c2ccccc2)C(F)(F)F)cc1F` [Example 86, (S)-2-(2,6-difluoro-4-(((R)-2,2,2-trifluoro-1-phenylethyl)amino)benzamido)-3-(8-(3-(trifluoromethyl)pyridin-2-yl)chroman-5-yl)propanoic acid] the EC50 was 3.34 nM.

Molecule `N#Cc1cc(Cl)c(-c2ccc(C[C@H](NC(=O)c3c(F)cc(N[C@H](c4ccccc4)C(F)(F)F)cc3F)C(=O)O)c3c2OCCC3)c(Cl)c1` [Example 87, (S)-3-(8-(2,6-dichloro-4-cyanophenyl)chroman-5-yl)-2-(2,6-difluoro-4-(((R)-2,2,2-trifluoro-1-phenylethyl)amino)benzamido)propanoic acid] has an EC50 of 12.8 nM.

With `C[C@@H](Nc1cc(F)c(C(=O)N[C@@H](Cc2ccc(-c3cn(C)c(=O)n(C)c3=O)c3c2CCCO3)C(=O)O)c(F)c1)C(F)(F)F` [Example 88, (S)-2-(2,6-difluoro-4-(((R)-1,1,1-trifluoropropan-2-yl)amino)benzamido)-3-(8-(1,3-dimethyl-2,4-dioxo-1,2,3,4-tetrahydropyrimidin-5-yl)chroman-5-yl)propanoic acid] the EC50 was 2.42 nM.
